According to US20230151034A1 (COCRYSTAL PHARMA, INC., priority 2020, published 2023):

The molecules below were run against SARS2 protease (Severe acute respiratory syndrome coronavirus 2, UniProt P0DTD1) (assay: SARS-CoV-2 protease inhibition assay (SARS2 FRET protease assay)). Conditions: Table E; SARS-CoV-2 protease inhibition; read-out: IC50.
Format: biochemical
Procedure: Viral protease assays: The antiviral activities of inhibitors were determined by FRET (Fluorescence Resonance Energy Transfer) assay. Purified viral protease was incubated with the protease substrate peptide (Edans-DFHLQ/GP-Dabcyl) and inhibitor, and IC50 values were subsequently determined by the fluorescence signals.
The SARS2 FRET protease assay was performed in 20 mM HEPES-Na pH 7, 120 mM NaCl, 0.4 mM EDTA, 0.01% Triton, 5% glycerol, and 4 mM DTT. A self-quenching peptide substrate 5-FAM-TSA VLQ SGF RKK (5TAMRA)-NH2 was custom synthesized by Anaspec. Compounds were diluted in 3-fold serial dilutions to final concentrations of 20 μM to 1.0 nM. SARS2 protease was added to a final concentration of 25 nM, depending on the enzyme activity level, and the peptide substrate was added to a final concentration of 1.3 μM. The assay was incubated 30 minutes at 30° C. and read in a Perkin Elmer Envision with excitation at 473 nm and emission measurement at 519 nm.

CCCCCCCC1CC/C=C/CC(C(=O)NC)C[C@@H](C(=O)N(C)OC)NC(=O)C(CC(C)C)NC(=O)O1 (single isomer, unassigned) [Compound B32] and CCCCCCCC1CCC/C=C/CC(C(=O)N(C)C)CC(C(=O)N(C)OC)NC(=O)[C@H](CC(C)C)NC(=O)O1 (stereo in doubt) [Compound B13, (4S,7S,E)-16-Heptyl-4-isobutyl-N^7-methoxy-N^7,N^9,N^9-trimethyl-2,5-dioxo-1-oxa-3,6-diazacyclohexadec-11-ene-7,9-dicarboxamide] cannot be ordered by IC50: > 200 µM for the first, > 200 µM for the second.

CCCCCCCC1CC/C=C/CC(C(=O)NC)C[C@@H](C(=O)N(C)OC)NC(=O)C(CC(C)C)NC(=O)O1 (single isomer, unassigned) [Compound B33] and CCCCCCCC1CC/C=C\CC(C(=O)N(C)C)CC(C(=O)N(C)OC)NC(=O)[C@H](CC(C)C)NC1=O (stereo in doubt) [Compound B11, (2S,5S,Z)-13-heptyl-2-isobutyl-N^5-methoxy-N^5,N^7,N^7-trimethyl-3,14-dioxo-1,4-diazacyclotetradec-9-ene-5,7-dicarboxamide] cannot be ordered by IC50: > 200 µM for the first, > 200 µM for the second.

CCCCCCCC1CC/C=C/CC(C(=O)NC)C[C@@H](C(=O)N(C)OC)NC(=O)C(CC(C)C)NC(=O)O1 (single isomer, unassigned) [Compound B34] and CCCCCCC1CCC/C=C\CC(C(=O)N(C)C)CC(C(=O)N(C)OC)NC(=O)C(CC(C)C)NC(=O)C1 (stereo in doubt) [Compound B14, (2S,5S,Z)-14-hexyl-2-isobutyl-N5-methoxy-N^5,N^7,N^7-trimethyl-3,16-dioxo-1,4-diazacyclohexadec-9-ene-5,7-dicarboxamide] cannot be ordered by IC50: > 200 µM for the first, > 200 µM for the second.

CCCCCCCC1CC/C=C/CC(C(=O)NC)C[C@@H](C(=O)N(C)OC)NC(=O)C(CC(C)C)NC(=O)O1 (single isomer, unassigned) [Compound B35] and CCCCCCCC1CCCCCC(C(=O)N(C)C)CC(C(=O)N(C)OC)NC(=O)[C@H](CC(C)C)NC1=O (stereo in doubt) [Compound B19, (2S,5S)-13-heptyl-2-isobutyl-N^5-methoxy-N^5,N^7,N^7-trimethyl-3,14-dioxo-1,4-diazacyclotetradecane-5,7-dicarboxamide] cannot be ordered by IC50: > 200 µM for the first, > 200 µM for the second.

First: CCCCCCCC1CC/C=C/CC(C(=O)NC)C[C@@H](C(=O)N(C)OC)NC(=O)C(CC(C)C)NC(=O)O1 (single isomer, unassigned) [Compound B36]
Second: CCCCCCCC1CC/C=C\CC(C(=O)N(C)C)CC(C=O)NC(=O)[C@H](CC(C)C)NC1=O (stereo in doubt) [Compound B10, (2S,5S,Z)-5-formyl-13-heptyl-2-isobutyl-N,N-dimethyl-3,14-dioxo-1,4-diazacyclotetradec-9-ene-7-carboxamide]
The IC50 of the first is higher: > 200 µM for the first, 105 µM for the second.

CCCCCCCCC(=O)N[C@@H](CC(C)C)C(=O)NC1CCC(=O)N(C)C1(O)C(=O)NC(C)C (stereo in doubt) [Compound A4, (3S)-2-hydroxy-N-isopropyl-1-methyl-3-((S)-4-methyl-2-nonanamidopentanamido)-6-oxopiperidine-2-carboxamide] and CCCCCCCC1CCCCCC(C(=O)N(C)C)CC(C=O)NC(=O)[C@H](CC(C)C)NC1=O (stereo in doubt) [Compound B18, (2S,5S)-5-formyl-13-heptyl-2-isobutyl-N,N-dimethyl-3,14-dioxo-1,4-diazacyclotetradecane-7-carboxamide] cannot be ordered by IC50: > 200 µM for the first, > 200 µM for the second.

CCS(=O)(=O)NCCN(C)C(=O)CC[C@H](NC(=O)[C@H](CC1CCCCC1)NC(=O)OCc1cccc(Cl)c1)C(=O)N(C)OC (stereo in doubt) [Compound A29, 3-Chlorobenzyl ((S)-3-cyclohexyl-1-(((S)-5-((2-(ethylsulfonamido)ethyl)(methyl)amino)-1-(methoxy(methyl)amino)-1,5-dioxopentan-2-yl)amino)-1-oxopropan-2-yl)carbamate] and CCOC(=O)NCCN(C)C(=O)CC[C@H](NC(=O)[C@H](CC1CCCCC1)NC(=O)OCc1cccc(Cl)c1)C(=O)N(C)OC (stereo in doubt) [Compound A32, 3-Chlorobenzyl ((12S,15S)-16-cyclohexyl-12-(methoxy(methyl)carbamoyl)-8-methyl-4,9,14-trioxo-3-oxa-5,8,13-triazahexadecan-15-yl)carbamate] cannot be ordered by IC50: > 200 µM for the first, > 200 µM for the second.

CON(C)C(=O)[C@H](CCC(=O)N(C)CCc1ccccc1)NC(=O)[C@H](CC1CCCCC1)NC(=O)OCc1cccc(Cl)c1 (stereo in doubt) [Compound A30, 3-chlorobenzyl ((S)-3-cyclohexyl-1-(((S)-1-(methoxy(methyl)amino)-5-(methyl(phenethyl)amino)-1,5-dioxopentan-2-yl)amino)-1-oxopropan-2-yl)carbamate] and CCN(CCc1ccccc1)C(=O)CC[C@H](NC(=O)[C@H](CC1CCCCC1)NC(=O)OCc1cccc(Cl)c1)C(=O)N(C)OC (stereo in doubt) [Compound A42, 3-Chlorobenzyl ((S)-3-cyclohexyl-1-(((S)-5-(ethyl(phenethyl)amino)-1-(methoxy(methyl)amino)-1,5-dioxopentan-2-yl)amino)-1-oxopropan-2-yl)carbamate] cannot be ordered by IC50: > 200 µM for the first, > 200 µM for the second.

CON(C)C(=O)[C@H](CCC(=O)N(C)CC(C)c1ccccc1)NC(=O)[C@H](CC1CCCCC1)NC(=O)OCc1cccc(Cl)c1 (stereo in doubt) [Compound A35, 3-chlorobenzyl ((2S)-3-cyclohexyl-1-(((2S)-1-(methoxy(methyl)amino)-5-(methyl(2-phenylpropyl)amino)-1,5-dioxopentan-2-yl)amino)-1-oxopropan-2-yl)carbamate] and CON(C)C(=O)[C@H](CC(C)C(=O)N(C)CCc1ccccc1)NC(=O)[C@H](CC1CCCCC1)NC(=O)OCc1cccc(Cl)c1 (stereo in doubt) [Compound A37, 3-Chlorobenzyl ((2S)-3-cyclohexyl-1-(((2S)-1-(methoxy (methyl)amino)-4-methyl-5-(methyl (phenethyl)amino)-1,5-dioxopentan-2-yl)amino)-1-oxopropan-2-yl) carbamate] cannot be ordered by IC50: > 200 µM for the first, > 200 µM for the second.

Going from CON(C)C(=O)[C@H](CCC(=O)N(C)CCc1ccc(Cl)cc1)NC(=O)[C@H](CC1CCCCC1)NC(=O)OCc1cccc(Cl)c1 (stereo in doubt) [Compound A41, 3-Chlorobenzyl ((S)-1-(((S)-5-((4-chlorophenethyl)(methyl)amino)-1-(methoxy(methyl)amino)-1,5-dioxopentan-2-yl)amino)-3-cyclohexyl-1-oxopropan-2-yl)carbamate] to CCCCCCCC1CCCCCCCC(C(=O)N(C)C)CC(C(=O)N(C)OC)NC(=O)[C@H](CC(C)C)NC1=O (stereo in doubt) [Compound B9, (2S,5S)-15-heptyl-2-isobutyl-N^5-methoxy-N^5,N^7,N^7-trimethyl-3,16-dioxo-1,4-diazacyclohexadecane-5,7-dicarboxamide], the IC50 rises from 30 µM to > 200 µM.

CCCCCCCC1CCCC/C=C/CC(C(=O)N(C)C)CC(C=O)NC(=O)[C@H](CC(C)C)NC1=O (stereo in doubt) [Compound B7, (2S,5S,E)-5-formyl-15-heptyl-2-isobutyl-N,N-dimethyl-3,16-dioxo-1,4-diazacyclohexadec-9-ene-7-carboxamide] and CCCCCCCC1CCCCCCCC(C(=O)N(C)C)CC(C=O)NC(=O)[C@H](CC(C)C)NC1=O (stereo in doubt) [Compound B17, (2S,5S)-5-formyl-15-heptyl-2-isobutyl-N,N-dimethyl-3,16-dioxo-1,4-diazacyclohexadecane-7-carboxamide] cannot be ordered by IC50: > 200 µM for the first, > 200 µM for the second.
